Data taken from US7968697B2, “Hepatitis C virus non-structural NS3/4A fusion gene” (ChronTech Pharma AB, priority 2005, dated 2011).
Where “and” joins values, the source holds several entries; their conditions need not be identical. Identical values can stand only once.

Assays:
HBsAg = test: EIA antibody titer to HBsAg after Engerix vaccine with or without ribavirin; type: in vivo, mice; details: 1 mg ribavirin mixed with 2 μg Engerix i.p., booster week four, bled week six
Description: (Engerix, SKB). […] A booster containing the same mixture was given on week four and all mice were bled on week six.

rNS3 = test: EIA antibody titre to rNS3 after immunization with rNS3 with or without ribavirin; type: in vivo, Balb/c mice; details: for Group mean titre (mean ± SD) to rNS3, Week 4 / Group mean titre (mean ± SD) to rNS3, Week 6 / Group mean titre (mean ± SD) to rNS3, Week 8 / Antibody titre to rNS3 at Week 4 / Antibody titre to rNS3 at Week 6 / Antibody titre to rNS3 at Week 8: i.p.; for Endpoint titre of rNS3 IgG at Week 1 / Endpoint titre of rNS3 IgG at Week 2 / Endpoint titre of rNS3 IgG at Week 3 / Antibody titre to rNS3 at Week 4 / Antibody titre to rNS3 at Week 6 / Antibody titre to rNS3 at Week 8: individual mouse
Description: In a first set of experiments, groups of three to five Balb/c mice (BK Universal, Uppsala, Sweden) were immunized i.p or s.c. (e.g., at the base of the tail) with 10 μg or 100 μg of recombinant hepatitis C virus non-structural 3 (rNS3) protein. […] Mice were injected with a total volume of 100 μl per injection.
At two and four weeks following i.p. immunization, all mice were bled by retro-orbital sampling. Serum samples were collected and analyzed for the presence of antibodies to rNS3. To determine the antibody titer, an enzyme immunoassay (EIA) was performed. (See e.g., Hultgren et al., J Gen Virol. 79:2381-91 (1998) and Hultgren et al., Clin. Diagn. Lab. Immunol. 4:630-632 (1997)). The antibody levels were recorded as the highest serum dilution giving an optical density at 405 nm more than twice that of non-immunized mice.
At four, six and eight weeks the mice were bled and serum was separated and frozen. After completion of the study, sera were tested for the levels of antibodies to recombinant NS3, as described above. Mean antibody levels to rNS3 were compared between the groups using Student's t-test (parametric analysis) or Mann-Whitney (non-parametric analysis) and the software package StatView 4.5 (Abacus Concepts, Berkely, Calif.). […] The values given represent end point titres to recombinant rNS3.
The levels of antibody to the antigen were then determined by EIA.
A second set of experiments was also performed. […] The mice were bled at week six and rNS3-specific IgG levels were determined by EIA as described previously.

NS3 = test: NS3-specific IgG subclass EIA after rNS3 with or without ribavirin; type: in vivo, mice; details: 0.1 or 1.0 mg ribavirin with 10 μg rNS3 i.p. at weeks 0 and 4; bled at week six
Description: The mice were bled at week six and NS3-specific IgG subclasses were determined by EIA as described previously.

CD4+ T cell = test: In vitro recall assay, lymph node CD4+ T cell proliferation ([3H] thymidine); type: cell-based, mice; details: 100 μg rNS3 mixed with 1 mg ribavirin s.c.; ten days post-immunization; 96 h of culture
Description: This assay can be used with any ribavirin derivative or combinations of ribavirin derivatives to determine the extent that a particular vaccine formulation modulates a cellular immune response. […] The mice were sacrificed ten days post-immunization and their lymph nodes were harvested and drained. In vitro recall assays were then performed. (See e.g., Hultgren et al., J Gen Virol. 79:2381-91 (1998) and Hultgren et al., Clin. Diagn. Lab. Immunol. 4:630-632 (1997)). The amount of CD4^+ T cell proliferation was determined at 96 h of culture by the incorporation of [^3H] thymidine.

[1] = system: NS3/4A-expressing EL-4 cells; test: In vivo challenge with NS3/4A-expressing EL-4 lymphoma cells, prophylactic and therapeutic; details: immunized only once; C57BL/6 mice
Description: To confirm that inhibition of tumor growth using the NS3/4A-expressing EL-4 cell line is fully dependent on an NS3/4A-specific immune response a control experiment was performed. Groups of ten C57BL/6 mice were either left nonimmunized, or immunized twice with the coNS3/4A plasmid. Two weeks after the last immunization the mice were challenged with an s.c. injection of 10^6 native EL-4 or NS3/4A-expressing EL-4 cells (NS3/4A-EL-4). An NS3/4A-specific immune response was required for protection, since only the immunized mice were protected against growth of the NS3/4A-EL-4 cell line (FIG. 13). Thus, this H-2^b-restricted model behaves similarly to the SP2/0H-2^d restricted model.
The tumor challenge model was then used to evaluate how effective the different immunogens were in priming a protective immunity against growth of NS3/4A-EL-4 tumor cells in vivo. […]
In vivo challenge of immunized mice with the NS3/4A-expressing SP2/0 myeloma or EL-4 lymphoma cell line was performed according to the method described by Encke et al., supra. […] The kinetics of the tumor growth was determined by measuring the tumor size through the skin at days six to 20. […]
To test the therapeutic effect of the vaccines groups of mice were inoculated with the tumor cells as described above. […] The tumor growth was monitored from day 6 to day 20.

[2] = 0.1 mg ribavirin mixed with 20 μg rNS3
[3] = 1.0 mg ribavirin mixed with 20 μg rNS3
[4] = 10.0 mg ribavirin mixed with 20 μg rNS3
[5] = 10 mg ribavirin with 10 μg rNS3
[6] = 10 mg ribavirin with 50 μg rNS3

Molecule: NC(=O)c1ncn([C@@H]2O[C@H](CO)[C@@H](O)[C@H]2O)n1 [ribavirin, 1-β-D-ribofuranosyl-1,2,4-triazole-3-carboxamide]
- effect on the antibody response to HBsAg vaccine (HBsAg): enhanced the response
- Mean endpoint titre of rNS3 IgG at Week 1 (rNS3; [2]): 1110 ± 1484
- Mean endpoint titre of rNS3 IgG at Week 2 (rNS3; [2]): 5060 ± 6921
- antibody titer compared with formulations composed of only rNS3 (rNS3; 1 mg of ribavirin and either 10 μg or 100 μg of rNS3, two weeks post-immunization): significantly greater antibody titer
- Mean endpoint titre of rNS3 IgG at Week 1 (rNS3; [3]): 360
- Mean endpoint titre of rNS3 IgG at Week 3 (rNS3; [3]): 5760 ± 6235
- Group mean titre (mean ± SD) to rNS3, Week 4 (rNS3; 1 mg ribavirin with 10 μg rNS3): 252 ± 107
- Group mean titre (mean ± SD) to rNS3, Week 6 (rNS3; 1 mg ribavirin with 10 μg rNS3): 28071 ± 16195
- Group mean titre (mean ± SD) to rNS3, Week 8 (rNS3; 1 mg ribavirin with 10 μg rNS3): 36642 ± 67565
- Group mean titre (mean ± SD) to rNS3, Week 4 (rNS3; 1 mg ribavirin with 50 μg rNS3): 150 ± 124
- Group mean titre (mean ± SD) to rNS3, Week 6 (rNS3; 1 mg ribavirin with 50 μg rNS3): 52500 ± 55549
- Group mean titre (mean ± SD) to rNS3, Week 8 (rNS3; 1 mg ribavirin with 50 μg rNS3): 37500 ± 62105
- Group mean titre (mean ± SD) to rNS3, Week 4 (rNS3; 3 mg ribavirin with 10 μg rNS3): 180 ± 128
- Group mean titre (mean ± SD) to rNS3, Week 6 (rNS3; 3 mg ribavirin with 10 μg rNS3): 30000 ± 13887
- Group mean titre (mean ± SD) to rNS3, Week 8 (rNS3; 3 mg ribavirin with 10 μg rNS3): 22500 ± 34637
- Group mean titre (mean ± SD) to rNS3, Week 4 (rNS3; 3 mg ribavirin with 50 μg rNS3): 387 ± 513
- Group mean titre (mean ± SD) to rNS3, Week 6 (rNS3; 3 mg ribavirin with 50 μg rNS3): 30000 ± 13887
- Mean endpoint titre of rNS3 IgG at Week 1 (rNS3; [4]): 360
- Mean endpoint titre of rNS3 IgG at Week 2 (rNS3; [4]): 5760 ± 6235
- Mean endpoint titre of rNS3 IgG at Week 3 (rNS3; [4]): 30960 ± 40888
- Group mean titre (mean ± SD) to rNS3, Week 4 (rNS3; [5]): 220 ± 139
- Group mean titre (mean ± SD) to rNS3, Week 4 (rNS3; [6]): 140 ± 124
- Group mean titre (mean ± SD) to rNS3, Week 6 (rNS3; [6]): 10929 ± 11928
- Group mean titre (mean ± SD) to rNS3, Week 8 (rNS3; [6]): 15214 ± 15380
- adjuvant effect on antibody levels, kinetics (rNS3; higher doses (1-10 mg) of ribavirin with 20 μg rNS3): enhance antibody levels at week three
- Endpoint titre of rNS3 IgG at Week 1 (rNS3; [2]): 2160 and 60 and <60
- Endpoint titre of rNS3 IgG at Week 2 (rNS3; [2]): 12960 and 60 and 2160
- Endpoint titre of rNS3 IgG at Week 3 (rNS3; [2]): 2160 (2×) and 60
- Endpoint titre of rNS3 IgG at Week 1 (rNS3; [3]): <60 (2×) and 360
- Endpoint titre of rNS3 IgG at Week 2 (rNS3; [3]): 60 and 2160 (2×)
- Endpoint titre of rNS3 IgG at Week 3 (rNS3; [3]): 12960 and 2160 (2×)
- Antibody titre to rNS3 at Week 4 (rNS3; 1 mg ribavirin with 10 μg rNS3): 300 (4×) and <60 (3×) and 60
- Antibody titre to rNS3 at Week 6 (rNS3; 1 mg ribavirin with 10 μg rNS3): 37500 (5×) and 1500 and 7500
- Antibody titre to rNS3 at Week 8 (rNS3; 1 mg ribavirin with 10 μg rNS3): 37500 and 1500 and 187500 and 7500 (4×)
- Antibody titre to rNS3 at Week 4 (rNS3; 1 mg ribavirin with 50 μg rNS3): 60 (5×) and 300 (3×)
- Antibody titre to rNS3 at Week 6 (rNS3; 1 mg ribavirin with 50 μg rNS3): 7500 and 37500 (6×) and 187500
- Antibody titre to rNS3 at Week 8 (rNS3; 1 mg ribavirin with 50 μg rNS3): 7500 (5×) and 187500 and 37500 (2×)
- Antibody titre to rNS3 at Week 4 (rNS3; 3 mg ribavirin with 10 μg rNS3): 60 (4×) and 300 (4×)
- Antibody titre to rNS3 at Week 6 (rNS3; 3 mg ribavirin with 10 μg rNS3): 37500 (6×) and 7500 (2×)
- Antibody titre to rNS3 at Week 8 (rNS3; 3 mg ribavirin with 10 μg rNS3): 7500 (4×) and 37500 (4×)
- Antibody titre to rNS3 at Week 4 (rNS3; 3 mg ribavirin with 50 μg rNS3): 60 (3×) and 300 (3×) and 1500
- Antibody titre to rNS3 at Week 6 (rNS3; 3 mg ribavirin with 50 μg rNS3): 37500 (6×) and 7500 (2×)
- Antibody titre to rNS3 at Week 8 (rNS3; 3 mg ribavirin with 50 μg rNS3): 7500 (5×) and 37500 (3×)
- Endpoint titre of rNS3 IgG at Week 1 (rNS3; [4]): 360 (2×) and <60
- Endpoint titre of rNS3 IgG at Week 2 (rNS3; [4]): 12960 and 2160 (2×)
- Endpoint titre of rNS3 IgG at Week 3 (rNS3; [4]): 77760 and 12960 and 2160
- Antibody titre to rNS3 at Week 4 (rNS3; [5]): 300 (2×) and <60 (5×) and 60
- Antibody titre to rNS3 at Week 6 (rNS3; [5]): 37500 (3×) and 300 (2×) and 7500 (2×)
- Antibody titre to rNS3 at Week 8 (rNS3; [5]): 37500 (3×) and 300 (2×) and 7500 (2×)
- Antibody titre to rNS3 at Week 4 (rNS3; [6]): 300 (2×) and 60 (5×)
- Antibody titre to rNS3 at Week 6 (rNS3; [6]): 7500 (5×) and 37500 (2×) and 1500
- Antibody titre to rNS3 at Week 8 (rNS3; [6]): 7500 (5×) and 37500 (2×) and 1500
- adjuvant effect on antibody levels, kinetics (rNS3; low doses (<1 mg) of ribavirin with 20 μg rNS3): enhance antibody levels at week one but not at week three
- effect on the NS3-specific IgG subclass response (NS3): does not change the IgG subclass response
- T cell proliferative response compared with 100 μg rNS3 in PBS (CD4+ T cell): much greater T cell proliferative response

Molecule: GAVQNEVTL (Artificial Peptide, NS3/4A H-2D Binding Peptide) [NS3-derived CTL peptide, ID; NO.: 37]
- protection against growth of NS3/4A-EL-4 tumors [1]: not protected
